Data taken from patent US20240228434A1, “PRODRUGS OF KV7 CHANNEL OPENERS” (Xyzagen, Inc., priority 2021, published 2024).

Legend:
[1] = system: flicks/licks after intraplantar 5% formalin; test: Formalin inflammatory pain model; assay type: in vivo, CD-1 mouse; conditions: SC 100 mg/kg in water 30 minutes before formalin; both phases (0-10 min, 15-40 min)
Description: Compound 4 was assessed in the rat formalin inflammatory model. The number of flicks/licks of a male CD-1 mouse in the acute phase 0-10 minute and the inflammatory phase from 15-40 min after intraplantar administration of 50 μL of 5% formalin was recorded. […] Data is presented over the duration of the observation periods in 2 minute bins.

[2] = In vitro mouse plasma stability at 37° C.; assay type: in vitro ADME; conditions: 1000 ng/mL
Description: (§1) Plasma was collected by the biomaterial vendor and kept frozen at −20° C.
(§2) The samples were analyzed by HPLC separation and mass spectrometry detection for prodrug amount, relative to a baseline time 0 control sample. Triplicate samples were generated at each time point and the peak area response was averaged and converted to a percent of baseline control.

[3] = Solvent solubility assessment by visual inspection; assay type: physicochemical; conditions: 0.1N Na2HPO4
Description: Compounds were weighed and placed into a 4 dram vials and solvents were added to the target concentration. Compounds were vortex and visually inspected for particulates and considered soluble if clear upon visual inspection with and without magnification. Solubility was reported as either greater than (>) or less than (<) from the prepared concentration. […] It was evaluated at 10 mg/mL in 0.1 N NaCl and was freely soluble. It was evaluate at 1 mg/mL in 0.1 N NaOH and 0.1 N Na2HPO4 and was freely soluble. In ethanol and methanol it was freely soluble at a concentration of 75 mg/mL. […] It was freely soluble at 75 mg/mL in methanol and ethanol. It was soluble at 1 mg/mL in 1N HCl.

[4] = In vitro rat plasma stability at 37° C.; assay type: in vitro ADME
Description: as §1, §2

[5] = Rat PK at equimolar dose to Ezogabine (20 mg/kg) in 0.5% methylcellulose; conditions: for AUClast/D / Cmax/D: male jugular vein cannulated rats, dose equimolar to Ezogabine 20 mg/kg, 0.5% methylcellulose in water, analyte the dosed prodrug; for AUClast/D: 24 hours; for Exposure of ezogabine (dose normalized AUC) compared with ezogabine itself: rats, equimolar dose to Ezogabine 20 mg/kg
Description: (§3) Blood samples were collected at the same time points over 24 hours to generate a concentration time profile. Two male rats were dosed per group. Plasma samples were analyzed by LC/MS/MS and the resulting concentration time profiles and PK parameters are provided.
as §3, §3

[6] = Pharmacokinetics of ezogabine prodrugs in rat (IV, IM, PO); conditions: for Exposure of the prodrug itself in systemic circulation: rat, in vivo, po
Description: (§4) Blood was diluted by 10% with these stabilizers.
(§5) Extraction of the molecules was conducted by taking a 50 uL aliquot of plasma and adding 200 uL of acetonitrile containing 200 ng/mL tolbutamide as the internal standard. Samples were precipitated in a 96 well plate, centrifuges and an aliquot transferred to a new plate, dried down under heat and nitrogen and then reconstituted in the initial mobile phase conditions of the LC-MS/MS method. […] A standard curve was prepared from 5000 ng/mL to 1 ng/mL for each analyte. Concentration data from the bioanalytical run was analyzed by Phoenix Winnonlin version 8 for noncompartmental PK analysis, plotting of concentration time curves and tabulation of PK parameters.
150 uL of blood were collected at predesignated time points. At completion of the study animals were asphyxiated by carbon dioxide gas and exsanguinated for euthanasia.

[7] = Acid and organic solution stability, HPLC-UV 250 nm; conditions: for Degradation / conversion to ezogabine in solution (summary) / Ezogabine Area / Appearance of the stability solution: 5 mg/mL; for Degradation / conversion to ezogabine in solution (summary): up to 3 weeks
Description: An HPLC-UV Vis method was developed using 0.1% Formic acid in water as mobile phase A and 0.1% Formic acid in acetonitrile as mobile Phase B. A gradient method was developed ramping from 10% A to 90% B over 8 minutes and then returning to 10% A at 8.5 minutes on a 4.6×50 mm Zorbax C-18 column. Injections of 10 uL of stability solutions were injected for analyte detection.
[…] Aliquots were collected at serial time points and then diluted to a nominal concentration of 100 ug/mL for injection to the HPLC and 250 nm monitored by the diode array detector. Data at approximately 10 days is presented.
Aliquots were collected at serial time points and then diluted to a nominal concentration of 100 ug/mL for injection to the HPLC and 250 nm monitored by the diode array detector.
(§6) It was also evaluated at 2 N HCl at 37° C. Aliquots were collected at serial time points and then diluted to a nominal concentration of 100 ug/mL for injection to the HPLC and 250 nm monitored by the diode array detector.
as §6, §6, §6

[8] = Stability in solvents on the benchtop exposed to light, HPLC-UV 230 nm; assay type: physicochemical
Description: Compounds in solvent were left on the benchtop exposed to light for up to 7 days since it is known that Compound 1 will degrade with light within 3-7 days.
Stability was assessed by taking an aliquot from the solubility vials at each test day. A single replicate was injected for each test condition.
Samples were injected onto an HPLC system with an aqueous mobile phase and acetonitrile organic phase and compounds were separated on a C8 50×2 mm column. Wavelength 230 nm was monitored for absorption and integrated for peak area while the mass spectrometer was used to confirm mass. Samples were tested on Day 1 and on subsequent days through Day 7.

[9] = system: MES induced seizures; test: SD rat MES test after IM Compound 4; assay type: in vivo; conditions: IM 75 mg/kg
Description: All treatments were at 0.083, 0.25, 0.5, 1, 2, 4, and 8 hours prior to the administration of MES test, where 6 seconds where 6 seconds without a seizure was considered protected.

[10] = Pharmacokinetics of ezogabine prodrugs in mouse (SC, PO); conditions: male mice, PO 20 mg/kg Cmpd 1 dosed
Description: as §4
as §5, with “noncompartmental sparse sampling” for “noncompartmental”
Animals were asphyxiated by carbon dioxide gas, blood was collected by cardiac stick and they were euthanized by cervical dislocation.

[11] = patients receiving ezogabine (POTIGA); cited from earlier work
[12] = system: mechanical hypersensitivity in the CCI model; test: CCI model of neuropathic pain (pin prick, von Frey hairs); assay type: in vivo, Sprague Dawley rat; conditions: 1 h after pretreatment
Description: Compound 3 was tested for reversal of mechanical hypersensitivity to the pin prick test for hindlimb paw withdraw and the von Frey hairs for gram force mechanical allodynia in the CCI model of neuropathic pain. Male Sprague Dawley rats (n=8/group) were tested for baseline sensitivity on Day 1 (ipsilateral and contralateral paws) and administered XYG-203 orally; 40 mg/kg on Day 1, 20 mg/kg Day 3, 10 mg/kg Day 5, 5 mg/kg Day 7, 1 mg/kg Day 10 and baseline on Day 12. Mechanical hypersensitivity was tested 1 h after pretreatment. Data (mean±SD) were analyzed with a repeated measures ANOVA with Dunnet's adjustment for multiple comparisons.

[13] = Methanol, room temp., normal light, 437 h

## CCOC(=O)Nc1ccc(NCc2ccc(F)cc2)cc1NC(=O)[C@@H](N)CCCCN [Compound 4]
[1]
  Reduction in behavioral response (flicks/licks) compared to vehicle: 50%
[2]
  Plasma stability: degrades by 6 hours
[3]
  Solubility: >1000 µg/mL
[4]; at 23 h
  Percent remaining: below 50%
[5]
  AUClast/D: 6.26 ng·h/mL/mg/kg
  Cmax/D: 2.34 ng/mL/mg/kg
  Exposure of ezogabine (dose normalized AUC) compared with ezogabine itself: similar
[6]
  Exposure of the prodrug itself in systemic circulation: slightly more detectable
[7]
  Degradation / conversion to ezogabine in solution (summary): very little degradation to ezogabine
[7]; 0.1N HCl, room temp., normal light, 269 h
  Ezogabine Area: 0 mAU
[7]; 1N HCl, room temp., normal light, 269 h
  Ezogabine Area: 0 mAU
[7]; 2N HCl 37 C., 436 h
  Ezogabine Area: 167 mAU
[7]; 2N HCl, room temp., normal light, 269 h
  Ezogabine Area: 38 mAU
[7]; 18 days
  Appearance of the stability solution: remained clear and colorless through Day 18
[7]; [13]
  Ezogabine Area: 0 mAU
[7]; PBS, room temp., normal light, 435 h
  Ezogabine Area: 0 mAU
[8]; all test conditions except 0.1N NaOH, over 4 days
  Stability in solvent: stable
[9]; at 1 h post dose
  Protection from MES induced seizures: almost fully protected
[9]; from 2 through 8 hours post dose
  Protection from MES induced seizures: fully protected

## CCOC(=O)Nc1ccc(NCc2ccc(F)cc2)cc1N [Compound 1, ezogabine]
[10]; analyte Cmpd 1
  Cmax/D: 148 ng/mL/mg/kg
[10]; analyte Cmpd 1, AUClast 6 h
  AUClast/D: 190 ng·h/mL/mg/kg
[6]; male Sprague Dawley rats, PO 20 mg/kg Cmpd 1 dosed, analyte Cmpd 1, AUClast […] h
  AUClast/D: 280 ng·h/mL/mg/kg
[7]; acid solutions, room temperature
  Appearance of the stability solution: turning light purple (indicating degradation) by Day 2
[7]; low pH
  Solubility: soluble
[7]; low pH (1 N HCl) and simulated gastric fluid
  Behaviour at low pH: degrades and forms a chromophore dimer
[7]; neutral pH
  Solubility: not soluble
[7]; organic solvent solutions, room temperature
  Appearance of the stability solution: did not begin turning purple until Day 7
[11]
  Adverse reaction: abnormal coordination: 7%
  Adverse reaction: aphasia: 4%
  Adverse reaction: asthenia: 5%
  Adverse reaction: balance disorder: 4%
  Adverse reaction: blurred vision: 5%
  Adverse reaction: confusional state: 9%
  Adverse reaction: diplopia: 7%
  Adverse reaction: disturbance in attention: 6%
  Adverse reaction: dizziness: 23%
  Adverse reaction: dysarthria: 4%
  Adverse reaction: fatigue: 15%
  Adverse reaction: gait disturbance: 4%
  Adverse reaction: memory impairment: 6%
  Adverse reaction: somnolence: 22%
  Adverse reaction: tremor: 8%
  Adverse reaction: vertigo: 8%

## CCOC(=O)Nc1ccc(NCc2ccc(F)cc2)cc1NC(=O)[C@H](N)CO [Compound 6]
[5]
  AUClast/D: 199 ng·h/mL/mg/kg
  Cmax/D: 233 ng/mL/mg/kg
  Exposure of ezogabine (dose normalized AUC) compared with ezogabine itself: similar
[7]
  Degradation / conversion to ezogabine in solution (summary): very little degradation to ezogabine
[7]; 1N HCl, room temp., normal light, 437 h
  Ezogabine Area: 58 mAU
[7]; 2N HCl 37 C., 437 h
  Ezogabine Area: 461 mAU
[7]; 2N HCl, room temp., normal light, 437 h
  Ezogabine Area: 177 mAU
[7]; 18 days
  Appearance of the stability solution: remained clear and colorless through Day 18
[7]; [13]
  Ezogabine Area: 184 mAU

## CCOC(=O)Nc1ccc(NCc2ccc(F)cc2)cc1NC(=O)OC(C)OC(=O)C(C)C (stereo not shown) [Compound 3]
[2]
  Time to full degradation in vitro: ≤ 1 h
[3]
  Solubility: <1000 µg/mL
[4]; 1000 ng/mL
  Time to full degradation in vitro: ≤ 1 h
[5]
  AUClast/D: 0.0136 ng·h/mL/mg/kg
  Cmax/D: 0.0273 ng/mL/mg/kg
[5]; male, rat, in vivo
  Total exposure of ezogabine on a given molar dose relative to ezogabine: > 2 fold
[6]
  Exposure of the prodrug itself in systemic circulation: very little exposure
[12]; oral 5 mg/kg
  Mechanical hypersensitivity versus baseline: 95% confidence intervals did not cross the baseline mean
[12]; oral 40 mg/kg
  Gram force to paw lift (von Frey hairs): increased the gram force to paw lift significantly
[12]; oral 40 mg/kg, pin prick, p=0.0003
  Reduction of the latency of neuropathic ipsilateral paw withdrawal: 9.2 s
[7]
  Appearance of the stability solution: clear and colorless through Day 18
  Degradation / conversion to ezogabine in solution (summary): converts to ezogabine under acidic conditions but does not in organic solvent
[7]; 0.1N HCl, room temp., normal light, 433 h
  Ezogabine Area: 400 mAU
[7]; 1N HCl, room temp., normal light, 97 h
  Ezogabine Area: 2881 mAU
[7]; 9 days
  Appearance of the stability solution: turned a golden yellow by Day 9
[7]; Acetonitrile, room temp., normal light, 435 h
  Ezogabine Area: 51 mAU
[7]; Ethanol, room temp., normal light, 390 h
  Ezogabine Area: 43 mAU
[7]; Methanol, room temp., normal light, 435 h
  Ezogabine Area: 41 mAU
[8]; 0.1N HCl, benchtop exposed to light
  Stability in solvent: stable over 4 days
[8]; 1N HCl over 7 days, benchtop exposed to light
  Stability in solvent: not stable
[8]; ethanol and methanol, benchtop exposed to light, degradation on Day 4
  Stability in solvent: soluble and stable through 3 days
